How the values were obtained:
[1] = Effect of gamma sterilization (25-35 kGy) on preservatives in buffer; format: physicochemical; conditions: for Result post-gamma sterilization: gamma sterilization 25-35 kGy
Protocol: In a preferred embodiment, sterilization is performed by use of a gamma irradiation system having a Cobalt-60 source. The system used in the examples and data presented below is a dual source (i.e. two source racks), affording continuous irradiation and wet storage. The sterilization range was 25-35 kGy, set by adjusting the time of exposure to a constant radiation source. All sterilization dose ranges were confirmed by dosimeters.
Cf. Table 3. We examined a variety of preservatives for use in this buffer.

six different organisms = conditions: over eight weeks, unsterile buffer
Description: We tested the Buffers according to USP protocol for “Antimicrobial Preservatives Effectiveness” (United States Pharmacopeia, Volume XXIV, Microbiological Tests, Section (51) Antimicrobial Effectiveness Testing, pp. 1809-11, Official Jan. 1, 2000).

Molecule	Result post-gamma sterilization [1]	effect on the final buffer formulation with regard to pH level, stability, and cosmetic factors ([1]; gamma sterilization cycle)	counts for five of the organisms (six different organisms)	log reduction for the sixth organism (six different organisms) [log]
O=C1C(N(CO)C(=O)NCO)N(CO)C(=O)N1CO (stereo not shown) [Germall II]	Strong acidification, evolved CO2	–	–	–
CC(C)(C)CC(C)(C)c1ccc(OCCOCC[N+](C)(C)Cc2ccccc2)cc1 [Benzethonium chloride]	Acceptable	minimal effect	no counts	> 3
COC(=O)c1ccc(O)cc1 [Methyl paraben]	Acidified	–	–	–
N=C(NCCCCCCNC(=N)NC(=N)Nc1ccc(Cl)cc1)NC(=N)Nc1ccc(Cl)cc1 [Chlorohexidine]	Precipitated	–	–	–
CCCOC(=O)c1ccc(O)cc1 [Propyl paraben]	Precipitated	–	–	–
Cl/C=C\C[N+]12CN3CN(CN(C3)C1)C2.[Cl-] [Dowicil 200]	Acidified, drifted	–	–	–
Benzalkonium chloride	Precipitated	–	–	–
